Assay results reported in patent US9458164B2, “Pyrrolopyridazines as potassium ion channel inhibitors” (BRISTOL-MYERS SQUIBB COMPANY, priority 2013, dated 2016).

Biological target: T1, human KV 1.5 (IKur) (Homo sapiens, UniProt P22460)
T1 construct: expressed in transfected cells
Test: Block of IKur current in patch clamped L-929 cells expressing human Kv1.5
Type: cell-based
Details: L929, patch clamped mammalian L-929 cells stably expressing human Kv1.5, read-out: Percentage inhibition of Kv1.5 in L-929 cells at 0.3 μM
Description: Assays to determine the degree of activity of a compound as an IKur inhibitor are well known in the art and are described in references such as J. Gen. Physiol., 101(4):513-543 (April 1993), and Br. J. Pharmacol., 115(2):267-274 (May 1995).
Synders, D. J. et al., “A rapidly activating and slowly inactivating potassium channel cloned from human heart: functional analysis after stable mammalian cell culture expression”, J. Gen. Physiol., 101:513-543 (1993). • 2. Zhou, Z. et al., “Block of HERG potassium channels by the antihistamine astemizole and its metabolites desmethylastemizole and norastemizole”, J. Cardiovasc. Electrophysiol., 10(6):836-843 (1999).

T1 sequence (P22460 whole entry): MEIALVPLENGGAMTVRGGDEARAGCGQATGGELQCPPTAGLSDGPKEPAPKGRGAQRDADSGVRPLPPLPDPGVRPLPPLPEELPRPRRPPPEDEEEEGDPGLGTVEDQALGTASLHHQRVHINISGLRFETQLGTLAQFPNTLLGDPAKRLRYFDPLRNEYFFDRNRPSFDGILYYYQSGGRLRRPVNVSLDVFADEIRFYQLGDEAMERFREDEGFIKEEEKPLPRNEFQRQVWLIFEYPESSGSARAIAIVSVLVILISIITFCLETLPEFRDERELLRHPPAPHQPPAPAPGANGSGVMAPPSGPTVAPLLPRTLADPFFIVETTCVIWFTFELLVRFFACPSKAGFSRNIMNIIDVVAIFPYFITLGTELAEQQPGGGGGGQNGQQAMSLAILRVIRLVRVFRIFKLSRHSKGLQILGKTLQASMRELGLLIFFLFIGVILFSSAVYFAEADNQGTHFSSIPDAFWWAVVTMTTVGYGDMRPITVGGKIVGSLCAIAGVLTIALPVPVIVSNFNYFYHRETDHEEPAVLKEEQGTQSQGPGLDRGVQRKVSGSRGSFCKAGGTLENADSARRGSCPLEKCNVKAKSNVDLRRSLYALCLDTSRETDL

| Structure (SMILES) | inhibition at 0.3 µM [%] |
| --- | --- |
| CS(=O)(=O)Nc1cncc(-c2cc(NCc3ccccc3)c3c(-c4ccccc4)ccn3n2)c1 [Example 4, N-(5-(4-(Benzylamino)-5-phenylpyrrolo[1,2-b]pyridazin-2-yl)pyridin-3-yl)methanesulfonamide] | 98 |
| CC(=O)NS(=O)(=O)c1cncc(-c2cc(NCc3ccccc3)c3c(-c4ccccc4)ccn3n2)c1 [Example 2, N-((5-(4-(Benzylamino)-5-phenylpyrrolo[1,2-b]pyridazin-2-yl)pyridin-3-yl)sulfonyl)acetamide] | 37 |
| NS(=O)(=O)c1cncc(-c2cc(NCc3ccccc3)c3c(-c4cccc(F)c4)ccn3n2)c1 [Example 6, 5-(4-(Benzylamino)-5-(3-fluorophenyl)pyrrolo[1,2-b]pyridazin-2-yl)-pyridine-3-sulfonamide] | 95 |
| CC(=O)Nc1cncc(-c2cc(NCc3ccccc3)c3c(-c4ccccc4)ccn3n2)c1 [Example 3, N-(5-(4-(Benzylamino)-5-phenylpyrrolo[1,2-b]pyridazin-2-yl)pyridin-3-yl)acetamide] | 98 |
| CCOC(=O)c1cncc(-c2cc(NCc3ccccc3)c3c(-c4cncc(C(=O)OCC)c4)ccn3n2)c1 [Example 5, Diethyl 5,5′-(4-(benzylamino)pyrrolo[1,2-b]pyridazine-2,5-diyl)dinicotinate] | 34 |
| NS(=O)(=O)c1cncc(-c2cc(NCc3ccccc3)c3c(-c4ccccc4)ccn3n2)c1 [Example 1, 5-(4-(Benzylamino)-5-phenylpyrrolo[1,2-b]pyridazin-2-yl)pyridine-3-sulfonamide] | 99 |
